Laboratory results reported in patent US20240246905A1 (University of Leicester, priority 2021, published 2024).
In brackets after ≈: the same amount, converted by molar mass.

Experiments:
[1] = test system: MRSA 252, MSSA 476, S. aureus 15981, P. aeruginosa PA01 and E. coli DH5α; experiment: Disc diffusion primary screening, five strains (statements in words); assay type: cell-based; conditions: 500 μg/mL
Protocol: As such, the minimum inhibition concentration (MICs) of biologically active compounds were further assessed using the broth dilution method against the S. aureus strains; MRSA 252 and MSSA 476 (Table 1). The results of both assays enabled key structural elements and functional groups required for the compounds to retain their antibiotic activity to be identified.
(§1) The antibiotic activity was determined using a Kirby-Bauer method according to Clinical Standard Laboratory Institute (CSLI) Guidelines (2017). Briefly, 180 μL of a 1 in 200 dilution (in LB or TSB) of overnight cultures of selected Gram negative and Gram positive bacteria were applied to an agar plate containing the solid growth medium, Mueller-Hinton agar (MHA). Sterile discs, inoculated with 50 μL of antibiotic, were first added to the agar plate before the plates were incubated for 24 hours at 37° C. Following incubation, the zone of inhibition (if it existed) was recorded.

[2] = Stability in the presence of glutathione (NMR); assay type: physicochemical; conditions: up to 24 hours, DMSO-D6
Description: It is well known that compounds bearing an isocyanide group are usually highly reactive, capable of reacting with electrophiles, nucleophiles and radicals.^(30) As a result, it was important to identify any stability issues which might be encountered by the lead compounds, both in storage and in the presence of glutathione and cysteine. […] Another common feature of the lead compounds is the vinyl fragment. It was hypothesized that the presence of glutathione and cysteine found in eukaryotic cells could potentially interact with the electrophilic alkene group in the compounds, thus shutting down their antibiotic activity. To probe this potentially detrimental in vivo process, compound 39 was subjected to glutathione for up to 24 hours whilst compound 41 was added to cysteine for the same length of time.

[3] = test system: Escherichia coli DH5α; experiment: Disc diffusion (Kirby-Bauer), zone of inhibition; assay type: cell-based; conditions: Escherichia coli DH5α; 500 μg/mL; '/' = no zone
Protocol: (§2) E. coli DH5α, P. aeruginosa PA01 and the 53 S. aureus strains were recovered from frozen (−80° C.) glycerol (15% v/v) stocks on Lysogeny agar (LA)—Gram negative and trypticase soy agar (TSA)—plates at 37° C. for 24 hours. Single colonies were placed in either 3 mL Lysogeny broth (LB)—Gram negative or trypticase soy broth (TSB)—Gram positive and incubated at 37° C., 250 rpm for 18 hours.
as §1

[4] = test system: Pseudomonas aeruginosa PA01; experiment: Disc diffusion (Kirby-Bauer), zone of inhibition; assay type: cell-based; conditions: 500 μg/mL, '/' = no zone
Protocol: as §2, §1

[5] = test system: Staphylococcus aureus 15981; experiment: Disc diffusion (Kirby-Bauer), zone of inhibition; assay type: cell-based; conditions: Staphylococcus aureus 15981; 500 μg/mL; '/' = no zone
Protocol: as §2, §1

[6] = test system: MSSA 476; experiment: MIC, broth micro-dilution; assay type: cell-based, Staphylococcus aureus
Protocol: as §2
(§3) Antibiotic MIC's were determined by a broth micro-dilution method according to Clinical Standard Laboratory Institute (CSLI) Guidelines (2017). Briefly, 96-well microplates, each containing 195 μL of the 1:2 dilution antibiotic in TSB, were inoculated with 5 μL of overnight cultured bacteria, diluted to give a starting bacterial concentration of 5×10^5 CFU/mL. The optical density of each well inoculated was recorded every 12 minutes over an 18 hour period at 37° C. The data from this was plotted in OriginPro8 (OriginLab) and sigmoidal curves fitted using the dose response function. Fitted values for each curve were used to calculate the MIC.

[7] = test system: MRSA 252; experiment: MIC, broth micro-dilution; assay type: cell-based, Staphylococcus aureus
Protocol: as §2, §3

[8] = test system: MSSA 476; experiment: Disc diffusion (Kirby-Bauer), zone of inhibition; assay type: cell-based, Staphylococcus aureus; conditions: 500 μg/mL, '/' = no zone
Protocol: as §2, §1

[9] = test system: MRSA 252; experiment: Disc diffusion (Kirby-Bauer), zone of inhibition; assay type: cell-based, Staphylococcus aureus; conditions: 500 μg/mL, '/' = no zone
Protocol: as §2, §1

Structure (SMILES): [C-]#[N+]/C=C/c1ccccc1/C=C/c1ccncc1 [Compound 39]
- antibiotic activity in disc diffusion assays (in words) [1]: retaining its activity against the Gram negative P. aeruginosa and E. coli
- structure after exposure to glutathione (NMR) [2]: no change in the structure
- Zone of inhibition [3]: 12 mm
- Zone of inhibition [4]: 20 mm
- Zone of inhibition [5]: 26 mm
- MIC [6]: 15 µg/mL (≈ 64.6 µM)
- MIC [7]: 12 µg/mL (≈ 51.7 µM)
- Zone of inhibition [8]: 32 mm
- Zone of inhibition [9]: 28 mm
